Results: US4906565A, “Method for the selective detection of microbial nucleotides” (Minnesota Mining and Manufacturing Company, priority 1986, dated 1990)

Tests used:
Assay type in all cases: biochemical
firefly luciferase [1] = molecular target: T1, firefly luciferase (Photinus pyralis, UniProt P08659); experiment: Effect of inhibitor on the bioluminescent assay of ATP
T1 construct: purchased Lumac/3M Lumit PM
Method: Assay: from each sample triplicate 100 μl aliquots were taken. In those aliquots ATP was measured as described.
Assay: from each sample triplicate 100 μl aliquots were taken. ATP in those aliquots was measured as described.
Assay: From each sample triplicate 100 μl aliquots were taken and ATP was measured as described.
(§1) Protocol: Eight samples were prepared using materials described above and previously, as shown in TABLE 7-1 and incubated for various periods of time (i.e., 0, 5, 10 and […]) before aliquots were taken and assayed as described.
(§2) Protocol: Increasing concentrations of hexokinase, with and without PCMPSA were prepared according to TABLE 8-1 using materials described above and previously.

hexokinase = experiment: Inhibition of hexokinase by PCMPSA, bioluminescent ATP assay; settings: PCMPSA 1.0 mM
Method: as §1, §2

acetate kinase = molecular target: T2, acetate kinase (Escherichia coli, UniProt P0A6A3); experiment: Inhibition of acetate kinase by PCMPSA; settings: PCMPSA 0.5 mM
T2 construct: purchased Boehringer Mannheim
T2 sequence (P0A6A3 1-400): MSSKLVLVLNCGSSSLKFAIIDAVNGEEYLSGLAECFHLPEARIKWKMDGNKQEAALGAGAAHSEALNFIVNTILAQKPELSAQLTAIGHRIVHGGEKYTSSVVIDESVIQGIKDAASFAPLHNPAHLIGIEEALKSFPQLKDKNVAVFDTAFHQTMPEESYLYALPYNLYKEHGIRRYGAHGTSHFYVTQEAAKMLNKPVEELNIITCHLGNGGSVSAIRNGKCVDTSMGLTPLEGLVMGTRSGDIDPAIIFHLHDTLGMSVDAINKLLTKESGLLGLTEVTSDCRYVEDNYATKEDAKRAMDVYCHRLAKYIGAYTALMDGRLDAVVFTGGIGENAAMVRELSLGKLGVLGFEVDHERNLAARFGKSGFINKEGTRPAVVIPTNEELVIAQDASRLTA
Method: Acetate kinase was added to initiate enzyme activity. […] ATP in those aliquots was assayed as described.

glycerokinase = experiment: Inhibition of glycerokinase by PCMPSA in milk / orange juice samples; settings: PCMPSA 0.5 mM; for % Control: control = same without glycerol; for RLU: milk/FRA, ATP added in SRA, 15 seconds
Method: Protocol: Samples were prepared containing: 1000 μl milk (local distributor, half-cream, sterilized); 800 μl FRA, 200 μl of a commercially available first releasing agent which is prepared in buffer for use with samples such as fruit juices (F-NRS, Lumac/3M); and 2.45 mM MgSO4. Glycerol, if present, was at a final concentration of 1.47 mM. ATP (10 mg/ml) was added in SRA to begin each assay, and PCMPSA if present, was also in that SRA aliquot in an amount sufficient to yield a final concentration of 0.5 mM.
(§3) To begin the assay, 100 μl of SRA/ATP ±PCMPSA was added to 50 μl of the appropriate sample. After 15 seconds (the period normally allowed for microbial nucleotide extraction using SRA) 100 μl Luciferase-luciferin solution was added and ATP was measured as described earlier.
(§4) Protocol: Samples with orange juice were prepared with 500 μl orange juice (Riedel, Netherlands, no preservatives, pasteurized), 500 μl buffered FRA, 3 mM glycerol, and with or without 0.5 mM PCMPSA. These were incubated over 0, 5, 10 and 20 minutes at four different glycerokinase concentrations.
(§5) Samples with milk were prepared similarly, but using 500 μl raw milk (fresh, local farmer) and 500 μl FRA in place of buffered FRA.

firefly luciferase [2] = molecular target: T1, firefly luciferase; experiment: Effect of inhibitor on the bioluminescent assay of ATP; remark: listed apart in the source
[3] = ATP inactivation by glycerokinase or apyrase in milk / orange juice samples; settings: apyrase 0.096 U/mL; raw milk:FRA 500:500 μl
Method: Protocol: Four samples were prepared as shown in TABLE 11-1 using materials described above and earlier, and aliquots taken at 0, 2.5, 5, 10 and 20 minutes. […]
as §3, §4, §5

[4] = PCMPSA 1.0 mM alone, no hexokinase, buffer
[5] = PCMPSA 1.0 mM alone, no hexokinase, in SRA
[6] = acetate kinase 1.7 U/ml, magnesium acetate 3 mM, FRA
[7] = glycerokinase 0.42 U/ml, glycerol 1.47 mM
[8] = glycerokinase 1.04 U/ml, glycerol 1.47 mM
[9] = glycerokinase 2.06 U/ml, glycerol 1.47 mM
[10] = orange juice, glycerokinase 0.85 U/ml
[11] = orange juice, glycerokinase 2.12 U/ml
[12] = orange juice, glycerokinase 4.25 U/ml
[13] = raw milk, glycerokinase 0.85 U/ml
[14] = raw milk, glycerokinase 2.12 U/ml
[15] = raw milk, glycerokinase 4.25 U/ml

T1 sequence (P08659 whole entry): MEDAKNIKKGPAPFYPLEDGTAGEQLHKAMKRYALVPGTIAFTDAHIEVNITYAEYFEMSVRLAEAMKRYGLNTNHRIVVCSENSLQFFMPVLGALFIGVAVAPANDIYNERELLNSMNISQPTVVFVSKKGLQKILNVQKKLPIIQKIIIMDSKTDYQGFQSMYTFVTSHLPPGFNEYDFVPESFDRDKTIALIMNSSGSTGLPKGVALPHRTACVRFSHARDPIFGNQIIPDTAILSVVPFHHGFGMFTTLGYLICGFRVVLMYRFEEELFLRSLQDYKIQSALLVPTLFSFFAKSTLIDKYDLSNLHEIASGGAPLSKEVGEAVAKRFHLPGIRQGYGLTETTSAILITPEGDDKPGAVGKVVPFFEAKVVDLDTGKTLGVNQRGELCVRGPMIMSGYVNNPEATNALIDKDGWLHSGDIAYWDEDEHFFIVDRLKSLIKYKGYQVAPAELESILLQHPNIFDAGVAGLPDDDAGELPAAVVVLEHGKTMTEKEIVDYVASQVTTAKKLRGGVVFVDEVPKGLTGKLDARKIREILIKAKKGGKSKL

O=S(=O)(O)c1cc[c]([Hg][Cl])cc1 [PCMPSA, p-chloromercuriphenylsulfonic acid]
RLU 10 min. (firefly luciferase [1]; [4]): 29569 RLU
RLU 15 min. (firefly luciferase [1]; [4]): 29742 RLU
RLU 0 min. (firefly luciferase [1]; [5]): 26457 RLU
interference with the bioluminescent assay (conclusion in words) (firefly luciferase [1]; PCMPSA alone, sample 5, buffer): does not substantially interfere
inhibition of hexokinase (conclusion in words) (hexokinase; buffer): at least partly inhibited
RLU 5 min. (hexokinase; hexokinase 0.14 U/ml, buffer): 25884 RLU
RLU 10 min. (hexokinase; hexokinase 0.14 U/ml, buffer): 23717 RLU
RLU 15 min. (hexokinase; hexokinase 0.14 U/ml, buffer): 24771 RLU
RLU 5 min. (hexokinase; hexokinase 0.14 U, in SRA): 15397 RLU
RLU 10 min. (hexokinase; hexokinase 0.14 U, in SRA): 15221 RLU
RLU 5 min. (hexokinase; hexokinase 0.28 U/ml, buffer): 19116 RLU
RLU 10 min. (hexokinase; hexokinase 0.28 U/ml, buffer): 18228 RLU
RLU 15 min. (hexokinase; hexokinase 0.28 U/ml, buffer): 16919 RLU
RLU 5 min. (hexokinase; hexokinase 0.28 U, in SRA): 11674 RLU
RLU 10 min. (hexokinase; hexokinase 0.28 U, in SRA): 12473 RLU
RLU 5 min. (hexokinase; hexokinase 0.70 U/ml, buffer): 13353 RLU
RLU 10 min. (hexokinase; hexokinase 0.70 U/ml, buffer): 11760 RLU
RLU 15 min. (hexokinase; hexokinase 0.70 U/ml, buffer): 9375 RLU
RLU 5 min. (hexokinase; hexokinase 0.70 U, in SRA): 4212 RLU
RLU 10 min. (hexokinase; hexokinase 0.70 U, in SRA): 3011 RLU
inhibition of hexokinase (conclusion in words) (hexokinase; in the presence of SRA): sufficiently inhibited
inhibition of acetate kinase (conclusion in words) (acetate kinase): fairly effective
RLU 0 min. (acetate kinase; [6]): 4878 RLU
RLU 5 min. (acetate kinase; [6]): 2911 RLU
RLU 10 min. (acetate kinase; [6]): 2263 RLU
RLU 15 min. (acetate kinase; [6]): 2362 RLU
% Control (glycerokinase; [7]): 91%
RLU (glycerokinase; [7]): 26407 RLU
RLU (glycerokinase; glycerokinase 0.42 U/ml, no glycerol (control)): 28957 RLU
% Control (glycerokinase; [8]): 78%
RLU (glycerokinase; [8]): 17213 RLU
RLU (glycerokinase; glycerokinase 1.04 U/ml, no glycerol (control)): 21901 RLU
% Control (glycerokinase; [9]): 58%
RLU (glycerokinase; [9]): 6404 RLU
RLU (glycerokinase; glycerokinase 2.06 U/ml, no glycerol (control)): 15129 RLU
inhibition of glycerokinase (conclusion in words) (glycerokinase; orange juice and milk, glycerokinase up to 4.25 U/ml): sufficient to inhibit even the highest concentrations of enzyme used
RLU after 0 min (glycerokinase; [10]): 142369 RLU
RLU after 5 min (glycerokinase; [10]): 145464 RLU
RLU after 10 min (glycerokinase; [10]): 150927 RLU
RLU after 20 min (glycerokinase; [10]): 155082 RLU
RLU after 0 min (glycerokinase; [11]): 152487 RLU
RLU after 5 min (glycerokinase; [11]): 143354 RLU
RLU after 10 min (glycerokinase; [11]): 132269 RLU
RLU after 20 min (glycerokinase; [11]): 151899 RLU
RLU after 0 min (glycerokinase; [12]): 116232 RLU
RLU after 5 min (glycerokinase; [12]): 131999 RLU
RLU after 10 min (glycerokinase; [12]): 123137 RLU
RLU after 20 min (glycerokinase; [12]): 125784 RLU
RLU after 0 min (glycerokinase; [13]): 1382 RLU
RLU after 5 min (glycerokinase; [13]): 1494 RLU
RLU after 10 min (glycerokinase; [13]): 1348 RLU
RLU after 20 min (glycerokinase; [13]): 1280 RLU
RLU after 0 min (glycerokinase; [14]): 829 RLU
RLU after 5 min (glycerokinase; [14]): 1340 RLU
RLU after 10 min (glycerokinase; [14]): 1342 RLU
RLU after 20 min (glycerokinase; [14]): 1233 RLU
RLU after 0 min (glycerokinase; [15]): 1173 RLU
RLU after 5 min (glycerokinase; [15]): 1314 RLU
RLU after 10 min (glycerokinase; [15]): 1374 RLU
RLU after 20 min (glycerokinase; [15]): 1028 RLU
RLU 0 min. (firefly luciferase [2]; [4]): 29494 RLU
RLU 10 min. (firefly luciferase [2]; [5]): 25284 RLU
interference with the bioluminescent assay of ATP (conclusion in words) (firefly luciferase [2]; PCMPSA alone, in SRA): only very slight interference, if at all

apyrase
RLU after 0 min [3]: 64594 RLU
RLU after 2.5 min. [3]: 3272 RLU
RLU after 5 min [3]: 1130 RLU
RLU after 20 min [3]: 243 RLU
